{"source": "patent US7465783B2", "about": "“Plant peptide with antimicrobial activity” (Centre National de la Recherche Scientifique, priority 2002, dated 2008)", "format_in_all_cases": "cell-based", "key": {"[1]": {"tested_on": "protoplasts of Arabidopsis thaliana", "description": "This experiment has the aim of determining whether the effect of the peptide on the viability of the protoplasts of Arabidopsis thaliana corresponds to the cell necrosis or else to the implementation of the process of programmed cell death or apoptosis.\nApoptosis is distinguished from necrosis by a rigorous staging of death, punctuated by a set of genetically controlled events (Vaux and Korsmeyer (Cell, 1999, 96: 245-254); Pennell and Lamb (Plant Cell, 1997, 9: 1157-1168); Greenberg (P.N.A.S., 1996, 93: 12094-12097)). […] The TUNEL reaction allows the free 3′OH ends present in great quantity in the nuclei whose DNA is fragmented in the course of the process of apoptosis to be labeled.\nThe external application of the peptide of 25 amino acids to protoplasts of Arabidopsis thaliana at 5 μM for 2 hours allows an increase in the population of positive TUNEL protoplasts to be observed (FIG. 5B). 4 times more nuclei show DNA fragmentation characteristics with respect to the control."}, "[2]": {"tested_on": "Pseudomonas syringae pv tomato strain DC3000", "test": "Antimicrobial (bacteriostatic) activity, peptide drops on TOPagar lawn", "method": "(§1) Toxicity experiments on the peptide of 25 amino acids (SUP 25) purified in the preceding example on different bacteria were carried out. The different bacteria are cultured in 5 ml of LB medium or of medium appropriate to the strain, and then sedimented by centrifugation at 3000 g, and finally taken up in a volume of LB identical to the volume of bacteria. 50 μl of bacteria are inoculated into 9 ml of liquid TOPagar (LB+7 g/l of bactoagar) at 48° C. and rapidly poured into a square LB agar dish of 10 cm on each side. The drops of 10 μl of different concentrations of peptides are deposited on the solidified ToPagar. The dish is cultured for 16 hours. Cecropin A at 20 μM, an insect peptide recognized as having antibacterial activity, serves as a positive control."}, "[3]": {"tested_on": "Xanthomonas campestris pv campestris strain 8004", "test": "Antimicrobial (bacteriostatic) activity, peptide drops on TOPagar lawn", "method": "as §1"}, "[4]": {"tested_on": "Escherichia coli Strain DH5α", "test": "Antimicrobial (bacteriostatic) activity, peptide drops on TOPagar lawn", "method": "as §1"}}, "note": "Ends that are not written are not given here."}
{"substance": "MWWLVGLTPVELIHLCAFRERLSHL [Pep1S]", "values": [{"measurement": "cytotoxic activity (fragmentation of nuclear DNA, TUNEL), in words", "setting": "[1]", "result": "no longer has cytotoxic activity"}]}
{"substance": "Cecropin A [reference compound]", "values": [{"measurement": "Cecropin A 20 μM (positive control, antibacterial activity)", "setting": "[2]", "result": "Positive"}, {"measurement": "Cecropin A 20 μM (positive control, antibacterial activity)", "setting": "[3]", "result": "Positive"}, {"measurement": "Cecropin A 20 μM (positive control, antibacterial activity)", "setting": "[4]", "result": "Positive"}]}
{"substance": "MWWLVGLTPVELIHLSAFRERLSHL [Pep2S]", "values": [{"measurement": "cytotoxic activity (fragmentation of nuclear DNA, TUNEL), in words", "setting": "[1]", "result": "has a cytotoxic activity"}]}
